Data as given in US4172891A, “Cephalosporins” (Takeda Chemical Industries, Inc., priority 1976, dated 1979).
Values after ≈ are worked out from the molar mass of the structure shown. Like-named read-outs stand apart in the source and are kept apart here.

How the values were obtained:
E. coli T-7 = assay: Minimum Inhibitory Concentration, agar dilution, E. coli T-7; type: cell-based; conditions: Escherichia coli
Description: (§1) […]. | Minimum Inhibitory Concentrations (mcg/ml, agar dilution)

Cit. freundii GN 1706 = assay: Minimum Inhibitory Concentration, agar dilution, Cit. freundii GN 1706; type: cell-based; conditions: Citrobacter freundii
Description: as §1

K. pneumoniae GN 3835 = assay: Minimum Inhibitory Concentration, agar dilution, K. pneumoniae GN 3835; type: cell-based; conditions: Klebsiella pneumoniae
Description: as §1

P. rettgeri 8(TNO 336) = assay: Minimum Inhibitory Concentration, agar dilution, P. rettgeri 8(TNO 336); type: cell-based, Proteus rettgeri; conditions: Providencia rettgeri
Description: as §1

Cit. freundii GN 99 = assay: Minimum Inhibitory Concentration, agar dilution, Cit. freundii GN 99; type: cell-based; conditions: Citrobacter freundii
Description: as §1

P. vulgaris IFO 3988 = assay: Minimum Inhibitory Concentration, agar dilution, P. vulgaris IFO 3988; type: cell-based; conditions: Proteus vulgaris
Description: as §1

K. pneumoniae DT = assay: Minimum Inhibitory Concentration, agar dilution, K. pneumoniae DT; type: cell-based; conditions: Klebsiella pneumoniae, read-out: Minimum Inhibitory Concentration
Description: as §1

P. morganii IFO 3168 = assay: Minimum Inhibitory Concentration, agar dilution, P. morganii IFO 3168; type: cell-based, Proteus morganii; conditions: Morganella morganii
Description: as §1

E. coli O-111 = assay: Minimum Inhibitory Concentration, agar dilution, E. coli O-111; type: cell-based; conditions: Escherichia coli, O111; E. coli O-111; agar dilution; read-out: Minimum Inhibitory Concentration
Description: (§2) Following each example is a tabulation of the minimal inhibitory concentrations (MIC) of the present compound [I] obtained in accordance with the particular example against several representative gram-negative bacteria and the corresponding concentrations of cephaloridine [7-(2-thienylacetamido)-3-(1-pyridyl)methyl-3-cephem-4-carboxylic acid betaine] and cefazolin [sodium 7-(1H-tetrazol-1-yl)acetamido-3-(2-methyl-1,3,4-thiadiazol-5-yl)thiomethyl-3-cephem-4-carboxylate], both of which are typical cephalosporins commercially available and clinically accepted nowadays [The New England Journal of Medicine 294, 24 (1976) and Journal of Pharmaceutical Science 64, 1899 (1975)]. There are also shown the effective doses of the typical compounds of this invention on the mice infected with Escherichia coli in comparison with that of cephaloridine.
Minimum Inhibitory Concentrations (mcg/ml, agar dilution)

E. coli NIHJ = assay: Minimum Inhibitory Concentration, agar dilution, E. coli NIHJ; type: cell-based; conditions: Escherichia coli, read-out: Minimum Inhibitory Concentration
Description: as §1

P. rettgeri GN 4733 = assay: Minimum Inhibitory Concentration, agar dilution, P. rettgeri GN 4733; type: cell-based, Proteus rettgeri; conditions: Providencia rettgeri
Description: as §1

P. mirabilis GN 4359 = assay: Minimum Inhibitory Concentration, agar dilution, P. mirabilis GN 4359; type: cell-based; conditions: Proteus mirabilis
Description: as §1

Ent. cloacae IFO 12937 = assay: Minimum Inhibitory Concentration, agar dilution, Ent. cloacae IFO 12937; type: cell-based; conditions: Enterobacter cloacae, IFO12937; Ent. cloacae IFO 12937; agar dilution; read-out: Minimum Inhibitory Concentration
Escherichia coli O-111 = assay: Comparative protection test on infected mice; type: in vivo; conditions: O111, sc, 168 h; male ICR/SLC mice infected intraperitoneally with Escherichia coli O-111; single subcutaneous dose immediately after challenge; 7 days observation
Description: as §2
Comparative protection tests of the compounds of this
invention and cephaloridine on infected mice
*Test animals: male mice (ICR/SLC) 5 mice per group per single dose
Infection: intraperitoneally with Escherichia coli O-111
Administration: a single subcutaneous dose immediately after challenge
Observation period: 7 days

[1] = GN4359, read-out: Minimum Inhibitory Concentration
[2] = T7, E. coli T-7, agar dilution, read-out: Minimum Inhibitory Concentration
[3] = GN1706, Cit. freundii GN 1706, agar dilution, read-out: Minimum Inhibitory Concentration
[4] = GN3835, K. pneumoniae GN 3835, agar dilution, read-out: Minimum Inhibitory Concentration
[5] = P. rettgeri 8(TNO 336), read-out: Minimum Inhibitory Concentration
[6] = GN99, Cit. freundii GN 99, agar dilution, read-out: Minimum Inhibitory Concentration
[7] = IFO3988, P. vulgaris IFO 3988, agar dilution, read-out: Minimum Inhibitory Concentration
[8] = IFO3168, P. morganii IFO 3168, agar dilution, read-out: Minimum Inhibitory Concentration
[9] = GN4733, P. rettgeri GN 4733, agar dilution, read-out: Minimum Inhibitory Concentration
[10] = K. pneumoniae DT, agar dilution
[11] = GN4359, P. mirabilis GN 4359, agar dilution, read-out: Minimum Inhibitory Concentration

SMILES | MIC (K. pneumoniae DT) | MIC (E. coli O-111) | MIC (P. mirabilis GN 4359; [1]) | MIC (E. coli T-7; [2]) | MIC (Cit. freundii GN 1706; [3]) | MIC (K. pneumoniae GN 3835; [4]) | MIC (P. rettgeri 8(TNO 336); [5]) | MIC (Cit. freundii GN 99; [6]) | MIC (Ent. cloacae IFO 12937) | MIC (P. vulgaris IFO 3988; [7]) | ED50 (Escherichia coli O-111) | MIC (P. morganii IFO 3168; [8]) | MIC (E. coli NIHJ; E. coli NIHJ, agar dilution) | MIC (P. rettgeri GN 4733; [9]) | MIC (K. pneumoniae DT; [10]) | MIC (P. mirabilis GN 4359; [11]) | also measured
Cc1nnc(SCC2=C(C(=O)[O-])N3C(=O)C(NC(=O)Cn4cnnn4)[C@H]3SC2)s1.[Na+] (stereo partly drawn) [Cefazolin, sodium 7-(1H-tetrazol-1-yl)acetamido-3-(2-methyl-1,3,4-thiadiazol-5-yl)thiomethyl-3-cephem-4-carboxylate, reference compound] | 1.56 µg/mL | 1.56 µg/mL | 3.13 µg/mL | – | – | – | – | – | – | – | – | – | – | – | – | – | MIC (E. coli T-7; T7, read-out: Minimum Inhibitory Concentration): > 100 µg/mL; MIC (Cit. freundii GN 1706; GN1706, read-out: Minimum Inhibitory Concentration): > 100 µg/mL; MIC (K. pneumoniae GN 3835; GN3835, read-out: Minimum Inhibitory Concentration): 12.5 µg/mL; MIC (P. rettgeri 8(TNO 336); read-out: Minimum Inhibitory Concentration, P. rettgeri 8(TNO 336)): 0.2 µg/mL; MIC (Cit. freundii GN 99; GN99, read-out: Minimum Inhibitory Concentration): 50 µg/mL; MIC (P. vulgaris IFO 3988; IFO3988, read-out: Minimum Inhibitory Concentration): 3.13 µg/mL; MIC (P. morganii IFO 3168; IFO3168, read-out: Minimum Inhibitory Concentration): > 100 µg/mL; MIC (E. coli NIHJ): 1.56 µg/mL; MIC (P. rettgeri GN 4733; GN4733, read-out: Minimum Inhibitory Concentration): > 100 µg/mL
O=C(Cc1cccs1)N[C@@H]1C(=O)N2C(C(=O)[O-])=C(C[n+]3ccccc3)CS[C@H]12 [Cephaloridine, 7-(2-thienylacetamido)-3-(1-pyridyl)methyl-3-cephem-4-carboxylic acid betaine, reference compound] | 3.13 µg/mL (≈ 7.53 µM) | 3.13 µg/mL (≈ 7.53 µM) | 3.13 µg/mL (≈ 7.53 µM) | > 100 µg/mL | > 100 µg/mL | 50 µg/mL (≈ 120 µM) | 1.56 µg/mL (≈ 3.75 µM) | 50 µg/mL (≈ 120 µM) | > 100 µg/mL | 6.25 µg/mL (≈ 15 µM) | 2.6 mg/kg | > 100 µg/mL | 6.25 µg/mL (≈ 15 µM) | > 100 µg/mL | – | – | –
CC(=O)OCC1=C(C(=O)O)N2C(=O)C(NC(=O)Cc3csc(=N)n3O)C2SC1 (stereo not drawn) [Example 1, sodium 7-[2-(2-imino-3-hydroxy-4-thiazolin-4-yl)acetamido]-3-acetoxymethyl-3-cephem-4-carboxylate] | – | 0.1 µg/mL | – | 3.13 µg/mL | 3.13 µg/mL | 0.2 µg/mL | ≤ 0.03 µg/mL | 1.56 µg/mL | 12.5 µg/mL | 0.39 µg/mL | 0.075 mg/kg | 0.39 µg/mL | 0.2 µg/mL | 0.1 µg/mL | 0.1 µg/mL | 0.2 µg/mL | –
Cc1nnc(SCC2=C(C(=O)O)N3C(=O)C(NC(=O)Cc4csc(=N)n4O)C3SC2)s1 (stereo not drawn) [Example 4, sodium 7-[2-(2-imino-3-hydroxy-4-thiazolin-4-yl)acetamido]-3-(2-methyl-1,3,4-thiadiazol-5-yl)thiomethyl-3-cephem-4-carboxylate] | – | 0.024 µg/mL | – | 1.56 µg/mL | 1.56 µg/mL | 0.2 µg/mL | 0.012 µg/mL | 0.78 µg/mL | 50 µg/mL | 0.1 µg/mL | 0.019 mg/kg | 0.1 µg/mL | 0.05 µg/mL | 0.1 µg/mL | 0.05 µg/mL | 0.05 µg/mL | –
Cn1nnnc1SCC1=C(C(=O)O)N2C(=O)C(NC(=O)Cc3csc(=N)n3O)C2SC1 (stereo not drawn) [Example 5, sodium 7-[2-(2-imino-3-hydroxy-4-thiazolin-4-yl)acetamido]-3-(1-methyltetrazol-5-yl) thiomethyl-3-cephem-4-carboxylate] | – | ≤ 0.03 µg/mL | – | 1.56 µg/mL | 0.78 µg/mL | 0.1 µg/mL | ≤ 0.03 µg/mL | 0.39 µg/mL | 6.25 µg/mL | 0.2 µg/mL | – | 0.78 µg/mL | 0.05 µg/mL | 0.05 µg/mL | 0.05 µg/mL | 0.1 µg/mL | –
Cc1nnc(SCC2=C(C(=O)O)N3C(=O)C(NC(=O)Cc4csc(=N)n4O)C3SC2)o1 (stereo not drawn) [Example 6, sodium 7-[2-(2-imino-3-hydroxy-4-thiazolin-4-yl)acetamido]-3-(5-methyl-1,3,4-oxadiazol-2-yl) thiomethyl-3-cephem-4-carboxylate] | – | 0.05 µg/mL | – | 3.13 µg/mL | 1.56 µg/mL | 0.78 µg/mL | ≤ 0.012 µg/mL | 0.78 µg/mL | 50 µg/mL | 0.2 µg/mL | 0.071 mg/kg | 0.1 µg/mL | 0.1 µg/mL | 0.1 µg/mL | 0.1 µg/mL | 0.1 µg/mL | –
